Molecular target: T1, ChRmine (Rhodomonas lens, UniProt Z9FJ57BNO3)
T1 construct: residues 1-309 of R. lens cation channelrhodopsin 1; C-terminal PreScission site-linker-sfGFP-7xHis, cleaved; expressed in Sf9; no N-terminal tag, Met1 removed, Ala2 acetylated; residues 2-285 modeled; homotrimer in MSP1E3D1 nanodiscs
T1 sequence (Z9FJ57BNO3 2-309): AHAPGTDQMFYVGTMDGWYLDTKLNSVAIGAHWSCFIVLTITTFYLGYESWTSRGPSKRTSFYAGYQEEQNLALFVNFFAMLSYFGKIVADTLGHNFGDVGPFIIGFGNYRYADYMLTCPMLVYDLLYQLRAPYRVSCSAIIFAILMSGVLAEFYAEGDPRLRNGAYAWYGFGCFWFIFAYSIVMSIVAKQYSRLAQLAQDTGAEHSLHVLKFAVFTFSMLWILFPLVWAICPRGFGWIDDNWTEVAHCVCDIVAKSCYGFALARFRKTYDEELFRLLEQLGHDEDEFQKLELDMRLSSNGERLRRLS
Assay: cryo-EM structure, […] Å, lipid nanodisc
Assay type: binding
Conditions: covalent; Schiff base to K257; MSP1E3D1 nanodisc with DOPE/POPS/POPC, pH 7.5; 5 µM all-trans retinal added to expression culture; small and large nanodisc forms

## CC1=C(/C=C/C(C)=C/C=C/C(C)=C/C=O)C(C)(C)CCC1 [all-trans retinal]
  cryo-EM structure, 2.7 Å, lipid nanodisc: (K257) on TM7 is covalently linked to a molecule of all-trans retinal through a Schiff base
